ChEMBL document CHEMBL4414572, “Curcumin analogues and their hybrid molecules as multifunctional drugs” (Eur J Med Chem, 2019)
In brackets after ≈: the same amount, converted by molar mass. Blank lines part the entries; values can stand above or below the compound they belong to.

Columns and labels:
U-266 = test: Cytotoxicity against human U266 cells assessed as reduction in cell viability; assay type: functional, cell-based
MM1.S = test: Cytotoxicity against human MM1S cells assessed as reduction in cell viability; assay type: functional, cell-based
[1] = Cytotoxicity against human […] cells assessed as reduction in cell viability; assay type: functional, cell-based
[2] = Inhibition of NFkappaB (unknown origin); design: species or system Homo sapiens
[3] = Antioxidant activity assessed as DPPH free radical scavenging activity after 30 mins; assay type: functional
Bacillus subtilis = test: Antibacterial activity against Bacillus subtilis after 24 hrs by twofold serial dilution technique; assay type: functional
MDA-MB-231 = test: Antiproliferative activity against human MDA-MB-231 cells 24 to 48 hrs by MTT assay; assay type: functional, cell-based
LS174T [4] = test: Cytotoxicity against human LS174T cells assessed as reduction in cell viability by SRB assay; assay type: functional, cell-based
SW480 = test: Cytotoxicity against human SW480 cells assessed as reduction in cell viability after 24 to 48 hrs by MTT assay; assay type: functional, cell-based
RAW264.7 = test: Anti-inflammatory activity in mouse RAW264.7 cells assessed as inhibition of LPS/IFN-gamma-induced nitric oxide production preincubated for 24 hrs followed by LPS/IFN-gamma-stimulation and measured after 17 hrs by Griess assay; assay type: functional, cell-based
LS174T [5] = test: Cytotoxicity against human LS174T cells assessed as reduction in cell viability in presence of PTX by SRB assay relative to control; assay type: functional
LS174T [6] = test: Cytotoxicity against human LS174T cells assessed as reduction in cell viability in presence of PTX by SRB assay; assay type: functional, cell-based
[7] = Antioxidant activity assessed as DPPH free radical scavenging activity; assay type: functional
K562 [8] = test: Cytotoxicity against human K562 cells assessed as reduction in cell viability after 48 hrs by SRB assay; assay type: functional, cell-based; conditions: K562, 48 h
HCT-15 = test: Cytotoxicity against human HCT15 cells assessed as reduction in cell viability after 48 hrs by SRB assay; assay type: functional, cell-based; conditions: HCT-15, 48 h
MCF7 = test: Cytotoxicity against human MCF7 cells assessed as reduction in cell viability by MTT assay; assay type: functional, cell-based
HeLa = test: Cytotoxicity against human HeLa cells assessed as reduction in cell viability after 24 hrs by MTT assay; assay type: functional, cell-based
SGC-7901 = test: Cytotoxicity against human SGC7901 cells assessed as reduction in cell viability after 24 hrs by MTT assay; assay type: functional, cell-based; conditions: SGC-7901, 24 h
K562 [9] = test: Cytotoxicity against human K562 cells assessed as reduction in cell viability after 24 hrs by MTT assay; assay type: functional, cell-based; conditions: K562, 24 h
HepG2 = test: Cytotoxicity against human HepG2 cells assessed as reduction in cell viability after 24 hrs by MTT assay; assay type: functional, cell-based; conditions: HepG2, 24 h
THP-1 = test: Cytotoxicity against human THP1 cells assessed as reduction in cell viability after 24 hrs by MTT assay; assay type: functional, cell-based; conditions: THP-1, 24 h
A549 = test: Cytotoxicity against human A549 cells assessed as reduction in cell viability after 24 hrs by MTT assay; assay type: functional, cell-based; conditions: A549, 24 h
L02 = test: Cytotoxicity against human LO2 cells assessed as reduction in cell viability after 24 hrs by MTT assay; assay type: cell-based; conditions: L02, 24 h
MIA PaCa-2 = test: Cytotoxicity against human MIAPaCa2 cells assessed as reduction in cell viability by MTT assay; assay type: functional, cell-based
PC-3 = test: Cytotoxicity against human PC3 cells assessed as reduction in cell viability by MTT assay; assay type: functional, cell-based
PANC-1 = test: Cytotoxicity against human PANC1 cells assessed as reduction in cell viability by MTT assay; assay type: functional, cell-based

Structure (SMILES): COc1cc(/C=C/C(=O)C(=Cc2ccc3c(c2)C(=O)N(C2CCC(=O)NC2=O)C3=O)C(=O)/C=C/c2ccc(O)c(OC)c2)ccc1O (stereo not given)
- IC50 (U-266): 96 µM
- IC50 (MM1.S): 6.44 µM
- IC50 [1]: 4.55 µM

Structure (SMILES): O=C1/C(=C/c2cn(-c3ccccc3)nc2-c2ccc([N+](=O)[O-])cc2)CCCC/C1=C\c1cn(-c2ccccc2)nc1-c1ccc([N+](=O)[O-])cc1
- IC50 (MDA-MB-231; mda-mb-231): 32.4 ppm

Structure (SMILES): O=C1NC(/C=C/c2ccccc2)=NC/1=C\C=C\c1ccccc1
- IC50 (LS174T [4]): 8.9 µM

Structure (SMILES): COc1cc(/C=C/C(=O)/C=C/c2ccc3c(c2)C(=O)N(C2CCC(=O)NC2=O)C3=O)ccc1O (stereo not given)
- IC50 (U-266): 2.33 µM
- IC50 (MM1.S): 7.59 µM
- IC50 [1]: 5.62 µM

Structure (SMILES): O=C(/C=C/c1c[nH]c2ccccc12)CC(=O)/C=C/c1c[nH]c2ccccc12
- IC50 (SW480): 15 to 17 µM

Structure (SMILES): COc1cc(/C=C/C=C2N=C(/C=C/c3ccccc3)NC\2=O)ccc1O
- IC50 (LS174T [4]): 7.6 µM
- Activity (LS174T [5]): 2.5 - 45.7%

Structure (SMILES): CCCNC(=O)/C(=C/C=C/c1ccccc1)NC(=O)/C=C/c1ccccc1
- Activity (LS174T [5]): 16.2%
- IC50 (LS174T [6]): 0.0038 µM

Structure (SMILES): COc1cc(CCc2cc(CCc3ccc(OC(C)=O)c(OC)c3)on2)ccc1OC(C)=O
- IC50 (K562 [8]): 3 µM
- IC50 (HCT-15): 2.8 µM

Structure (SMILES): CCOC(OCC)c1ccc(/C=C2\CN(C)C/C(=C\c3ccc(C(OCC)OCC)cc3)C2=NO)cc1
- IC50 (MCF7): 0.03 µM

Structure (SMILES): O=C1/C(=C/c2cc(/N=C/c3ccc(O)c(O)c3O)ccc2F)CNC/C1=C\c1cc(/N=C/c2ccc(O)c(O)c2O)ccc1F
- IC50 (HeLa): < 2 µM
- IC50 (SGC-7901): < 2 µM
- IC50 (K562 [9]): < 2 µM
- IC50 (HepG2): < 2 µM
- IC50 (THP-1): < 2 µM
- IC50 (A549): < 2 µM
- IC50 (L02): < 2 µM

Structure (SMILES): CN1C/C(=C\c2ccc(N(C)C)cc2[N+](=O)[O-])C(=NO)/C(=C/c2ccc(N(C)C)cc2[N+](=O)[O-])C1
- IC50 (MIA PaCa-2): 0.02 µM
- IC50 (PC-3): 0.02 µM
- IC50 (PANC-1): 0.02 µM
- IC50 (MCF7): 0.02 µM

Next, values leading:

- IC50 [2]: 2.8 µg/mL (≈ 5.99 µM)
Structure (SMILES): C=CC(=O)NC(c1ccccc1)C(C(=O)/C=C/c1cccc(O)c1)C(=O)/C=C/c1cccc(O)c1 (stereo not given)

- IC50 [3]: 10500 µM
Structure (SMILES): O=C1/C(=C/c2cn(-c3ccccc3)nc2-c2ccccc2)CNC/C1=C\c1cn(-c2ccccc2)nc1-c1ccccc1

- MIC (Bacillus subtilis): 3.12 µg/mL (≈ 5.61 µM)
Structure (SMILES): CCN1N=C(C(=NNc2ccccc2)C2=NN(CC)C(c3ccc(O)c(OC)c3)C2)CC1c1ccc(O)c(OC)c1 (stereo not given)

- IC50 (MDA-MB-231; mda-mb-231): 50.4 ppm
Structure (SMILES): O=C(/C=C/c1cn(-c2ccccc2)nc1-c1ccc([N+](=O)[O-])cc1)/C=C/c1cn(-c2ccccc2)nc1-c1ccc([N+](=O)[O-])cc1

- IC50 (MDA-MB-231; mda-mb-231): 39.9 ppm
- IC50 [3]: 6400 µM
Structure (SMILES): COc1ccc(-c2nn(-c3ccccc3)cc2/C=C2\CN(C)C/C(=C\c3cn(-c4ccccc4)nc3-c3ccc(OC)cc3)C2=O)cc1

- IC50 (MDA-MB-231; mda-mb-231): 75.8 ppm
Structure (SMILES): COc1ccc(-c2nn(-c3ccccc3)cc2/C=C2\CCCC/C(=C\c3cn(-c4ccccc4)nc3-c3ccc(OC)cc3)C2=O)cc1

- IC50 (MDA-MB-231; mda-mb-231): 45.1 ppm
Structure (SMILES): O=C1/C(=C/c2cn(-c3ccccc3)nc2-c2ccccc2)CN(Cc2ccccc2)C/C1=C\c1cn(-c2ccccc2)nc1-c1ccccc1

- IC50 (RAW264.7): 4.9 µM
Structure (SMILES): O=C(/C=C(O)/C=C/c1ccc(O)c(O)c1)c1cc(Cl)ccc1O

- IC50 [7]: 0.253 µg/mL (≈ 0.52 µM)
Structure (SMILES): COc1cc(/C=C/C(=O)C(=NNc2ccc(C)cc2)C(=O)/C=C/c2ccc(O)c(OC)c2)ccc1O

- IC50 (RAW264.7): 9.6 µM
Structure (SMILES): O=C(/C=C(O)/C=C/c1ccc(O)c(O)c1)c1ccccc1O

- IC50 (MDA-MB-231; mda-mb-231): 20.5 ppm
Structure (SMILES): CN1C/C(=C\c2cn(-c3ccccc3)nc2-c2ccccc2)C(=O)/C(=C/c2cn(-c3ccccc3)nc2-c2ccccc2)C1

- IC50 (MDA-MB-231; Homo sapiens, MDA-MB-231): 11.6 µM
Structure (SMILES): O=C1/C(=C/c2cn(-c3ccccc3)nc2-c2ccccc2)CCCC/C1=C\c1cn(-c2ccccc2)nc1-c1ccccc1
